# Like-named read-outs stand apart in the source and are kept apart here.
# Columns and labels:
# [1] = cited from earlier work
# MATE1 [2] = target: T1, MATE1 (Homo sapiens, UniProt Q96FL8); experiment: Uptake ratio in MATE1-overexpressing HEK293 cells vs empty vector (2.5 μM, 1 min, HPLC-MS/MS); assay type: cell-based; settings: 2.5 μM, 1 min; for MATE1 ratio: fold uptake over empty vector; for MATE1 (uptake ratio): mean ratio of uptake in MATE1-overexpressing HEK293 cells vs empty vector
# T1 sequence (Q96FL8 1-570): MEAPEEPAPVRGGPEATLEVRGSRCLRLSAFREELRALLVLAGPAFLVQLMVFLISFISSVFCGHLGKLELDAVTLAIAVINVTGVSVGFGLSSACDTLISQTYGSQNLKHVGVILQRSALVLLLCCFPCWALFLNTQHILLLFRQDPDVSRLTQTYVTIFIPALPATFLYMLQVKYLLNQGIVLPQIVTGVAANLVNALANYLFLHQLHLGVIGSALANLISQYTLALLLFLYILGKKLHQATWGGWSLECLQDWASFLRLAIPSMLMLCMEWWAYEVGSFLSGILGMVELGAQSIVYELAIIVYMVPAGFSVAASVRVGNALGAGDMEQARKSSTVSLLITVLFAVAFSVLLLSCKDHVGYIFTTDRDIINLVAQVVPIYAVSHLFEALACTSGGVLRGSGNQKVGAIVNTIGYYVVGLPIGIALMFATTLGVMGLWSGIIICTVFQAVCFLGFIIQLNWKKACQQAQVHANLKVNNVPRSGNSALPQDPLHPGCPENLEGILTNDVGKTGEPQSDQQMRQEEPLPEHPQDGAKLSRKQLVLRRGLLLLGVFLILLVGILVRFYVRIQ
# MATE2K [3] = target: T2, MATE2K (Homo sapiens, UniProt Q86VL8); experiment: Uptake ratio in MATE2K-overexpressing HEK293 cells vs empty vector (2.5 μM, 1 min, HPLC-MS/MS); assay type: cell-based; settings: 2.5 μM, 1 min; for MATE2K ratio: fold uptake over empty vector; for MATE2 (uptake ratio): mean ratio of uptake in MATE2K-overexpressing HEK293 cells vs empty vector
# hCMEC [4] = experiment: TS MDAI hCMEC (Table S2); assay type: cell-based, human; set-up: scale not given here
# MATE2K [5] = target: T2, MATE2K; experiment: Concentration-dependent uptake (Michaelis-Menten) via MATE2K in HEK293 cells; settings: HEK293, 1 min, net uptake; for Km: read-out: MATE2K KM
# MATE1 [6] = target: T1, MATE1; experiment: Concentration-dependent uptake (Michaelis-Menten) via MATE1 in HEK293 cells; settings: HEK293, 1 min, net uptake; for Km: read-out: MATE1 KM
# hCMEC [7] = experiment: TS DPH hCMEC (Table S2); assay type: cell-based, human; set-up: scale not given here
# [8] = system: MATE1, MATE2K, OCT1, OCT2; experiment: Substrate specificity and overlap among the four transporters (ratio cutoff 2); assay type: cell-based, human; settings: transport ratio cutoff of 2
# T2 sequence (Q86VL8 1-566 isoform Q86VL8-3): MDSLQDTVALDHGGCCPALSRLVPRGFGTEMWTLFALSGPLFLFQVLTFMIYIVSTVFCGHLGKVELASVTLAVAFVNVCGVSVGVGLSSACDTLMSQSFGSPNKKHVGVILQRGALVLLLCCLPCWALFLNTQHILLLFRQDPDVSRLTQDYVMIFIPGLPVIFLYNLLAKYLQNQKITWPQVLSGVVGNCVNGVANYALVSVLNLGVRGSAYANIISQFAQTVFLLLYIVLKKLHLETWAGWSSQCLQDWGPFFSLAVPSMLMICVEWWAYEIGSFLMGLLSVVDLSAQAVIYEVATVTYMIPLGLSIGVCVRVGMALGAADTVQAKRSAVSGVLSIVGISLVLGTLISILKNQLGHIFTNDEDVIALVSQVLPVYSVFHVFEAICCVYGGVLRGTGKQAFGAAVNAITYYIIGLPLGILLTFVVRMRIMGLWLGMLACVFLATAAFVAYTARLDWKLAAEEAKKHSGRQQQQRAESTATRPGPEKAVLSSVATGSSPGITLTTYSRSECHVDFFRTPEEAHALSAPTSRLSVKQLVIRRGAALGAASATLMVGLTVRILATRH
Structure (SMILES),eliminated unchanged via the kidneys ([1]; human),MATE1 ratio (MATE1 [2]),MATE2K ratio (MATE2K [3]),TS MDAI hCMEC (hCMEC [4]; Table S2),MATE2K Vmax (MATE2K [5]),Km (MATE2K [5]) [µM],MATE1 Vmax (MATE1 [6]),Km (MATE1 [6]) [µM],TS DPH hCMEC (hCMEC [7]; Table S2),"Substrate specificity among MATE1, MATE2K, OCT1, OCT2 [8]",further results
C=CCN1CCCC1CNC(=O)c1cc2nn[nH]c2cc1OC (centres unmarked) [Alizapride],more than 70%,3.68,2.64,,,,,,,,MATE1 ratio (MATE1 [2]; listed as alizapride): above 2; MATE1 (uptake ratio) (MATE1 [2]): 3.68; MATE2 (uptake ratio) (MATE2K [3]): 2.64
Nc1ccncc1N [Amifampridine],more than 70%,17.06,7.01,,,,,,,,MATE1 ratio (MATE1 [2]; listed as amifampridine): above 2; MATE1 (uptake ratio) (MATE1 [2]): 17.06; MATE2 (uptake ratio) (MATE2K [3]): 7.01
CCN1CCCC1CNC(=O)c1cc(S(=O)(=O)CC)c(N)cc1OC (centres unmarked) [Amisulpride],more than 70%,11.04,11.15,0.91,710 pmol × mg protein^–1 × min^–1,39.9,238 pmol × mg protein^–1 × min^–1,10.6,0.89,,MATE1 ratio (MATE1 [2]; listed as amisulpride): above 2; MATE1 (uptake ratio) (MATE1 [2]): 11.04; MATE2 (uptake ratio) (MATE2K [3]): 11.15
CC(C)NCC(O)COc1ccc(COCCOC(C)C)cc1 (centres unmarked) [Bisoprolol],50%,,,0.35,,,,,0.32,,
C[C@H](N)[C@@H](O)c1ccccc1 [Cathine],,,,,,,,,,OCT2 only,TS DPH hCMEC (hCMEC [7]): 0.35
CC[N+](C)(C)c1cccc(O)c1 [Edrophonium],,30.33,10.98,,,,,,,,eliminated unchanged via the kidneys ([1]; in vivo): more than 70%; MATE1 ratio (MATE1 [2]; listed as edrophonium): above 2
NC(N)=Nc1nc(CSCCC(N)=NS(N)(=O)=O)cs1 [Famotidine],more than 70%,,,,,,,,,,
CN[C@@H]1CCc2[nH]c3ccc(C(N)=O)cc3c2C1 [Frovatriptan],,34.35,31.50,0.88,869 pmol × mg protein^–1 × min^–1,11.2,4568 pmol × mg protein^–1 × min^–1,70.4,0.83,All four transporters,
C[C@H]1N=C(N(C)C)N=C(N)N1 [Imeglimin],more than 70%,18.76,4.59,,2814 pmol × mg protein^–1 × min^–1,81.6,6242 pmol × mg protein^–1 × min^–1,58,,,MATE1 ratio in this study (MATE1 [2]; Table S1): 18.76; MATE1 ratio (MATE1 [2]; listed as imeglimin): above 2; MATE2K ratio in this study (MATE2K [3]; Table S1): 4.59
C[N@+]1(CC2CC2)CC[C@]23c4c5ccc(O)c4O[C@H]2C(=O)CC[C@@]3(O)[C@H]1C5 [Methylnaltrexone],,,,0.84,41.6 pmol × mg protein^–1 × min^–1,86.8,55.8 pmol × mg protein^–1 × min^–1,17.9,1.11,All four transporters,
COC(=O)C(c1ccccc1)C1CCCCN1 (centres unmarked) [Methylphenidate],,,,,,,,,,OCT2 only,TS MDAI hCMEC (hCMEC [4]): 0.24; TS DPH hCMEC (hCMEC [7]): 0.33
COc1ccc(OC)c(C(O)CNC(=O)CN)c1 (centres unmarked) [Midodrine],,4.53,1.43,1.02,,,,,1.05,MATE1 only,
COc1cc(C(O)CN)ccc1O (centres unmarked) [Normetanephrine],,1.80,0.82,,,,,,,OCT1 only,

# Reference: publication PMC12207590, “Substrate Specificity of the Organic Cation Transporters MATE1 and MATE2K and Functional Overlap with OCT1 and OCT2” (Journal of Medicinal Chemistry, 2025)
